Results from patent publication US10426162B2, “Interaction between antimicrobial quaternary compounds and anionic surfactants” (Ecolab USA Inc., priority 2016, dated 2019).

What was measured:
[1] = system: bacteria; test: Antimicrobial efficacy at pH 8.0, 7.5 to 1 mass ratio (FIG. 6B); assay type: cell-based; settings: 7.5/1 mass ratio; for log reduction of bacteria: 300 ppm Bardac […] + anionic surfactant; for antimicrobial efficacy: 150 ppm Bardac […] + anionic surfactant
Procedure: Further examination of the antimicrobial efficacy of a quaternary ammonium compound in association with an anionic surfactant at pH 8.0 was performed as described above.

[2] = Dynamic surface tension (SITA science line t60 bubble pressure); settings: for dynamic surface tension: 100 ppm Bardac […] + sulfate based anionic surfactant at mole:mole ratio, FIGS. 4A-4C
Procedure: The SITA science line t60 measures the dynamic surface tension of liquids up to the semi-static range. Air bubbles are generated from a capillary with known radius. The bubble pressure is measured as a function of bubble life time, which can be correlated to the surface tension according to the Young-Laplace equation.
The SITA science line t60 was calibrated with DI water. Clean water samples after calibration should have a surface tension of 72.0 ±1.0 mN/m (depending on the quality and temperature). Following calibration, the SITA was programmed to take readings at the desired time intervals (i.e., 0.3, 1.6, 3.0, 9.1 seconds). In order to determine the effects on the surface activity of a 9:1 mass ratio of quaternary ammonium compound with an anionic surfactant the following compositions were prepared.
10-15 mL were transferred into 20 mL vials and immersed in a heated oil bath to 72° C. (160° F.)±2° C. The samples were equilibrated for 10-15 minutes. The samples were individually removed from the oil bath and tested in the SITA. After each sample was tested the SITA's cleaning procedure was run, then the surface tension of DI water was checked to ensure the SITA was adequately clean. If the DI water measurements were not within 72.0±1.0 mN/m, then the cleaning procedure was run again.
The SITA science line t60 was calibrated with DI water. Clean water samples after calibration should have a surface tension of 72.0±1.0 mN/m (depending on the quality and temperature). Following calibration, the SITA was programmed to take readings at the desired time intervals (i.e., 0.3, 1.6, 3.0, 9.1 seconds). In order to determine the effects on the dynamic surface tension of Bardac LF80 and varying concentrations of Acusol 445 the following five solutions were analyzed at pH 7.0; 100 ppm Bardac LF80; 10 ppm Acusol 445; 100 ppm Bardac LF80+10 ppm Acusol 445; 100 ppm Bardac LF80+30 ppm Acusol 445; and 100 ppm Bardac LF80+75 ppm Acusol 445.

[3] = system: Staphylococcus; test: Antimicrobial suspension test of quat-anionic surfactant compositions (Examples 6, 8); assay type: cell-based, Staphylococcus aureus; settings: for antimicrobial efficacy against Staphylococcus: FIG. 6A; for kill properties on Staphylococcus: 300, 150 and 75 ppm active Bardac […] + anionic surfactant, 7.5:1 mass ratio, pH 8, FIG. 8
[4] = system: Escherichia coli; test: Antimicrobial suspension test of quat-anionic surfactant compositions (Examples 6-7); assay type: cell-based; settings: for antimicrobial efficacy against E. coli (log reduction of bacteria): 300 ppm Bardac […] + anionic surfactant, mole:mole ratio, pH 8, FIG. 7; for log reduction of bacteria for E. coli: 300 ppm active Bardac […] + anionic surfactant, 7.5/1 mass ratio, FIG. 6A
[5] = system: E. coli; test: Third sink sanitizer (Example 12); assay type: cell-based, Escherichia coli; settings: 500 ppm water hardness, neutral pH versus pH 4.5
Procedure: The antimicrobial efficacy of quaternary ammonium compounds and anionic surfactants for use as a third sink sanitizer were evaluated as shown in Table 10.

[6] = Bardac […] + anionic sulfate surfactant at mole:mole ratio, FIG. 2
[7] = 300 ppm active Bardac […] + anionic surfactant, 7.5/1 mass ratio
[8] = 100 ppm Bardac […] + anionic carboxylate surfactant at mole:mole ratio, FIG. 3A
[9] = 300 ppm Bardac […] + anionic surfactant, mole:mole ratio

| Compound | log reduction of bacteria [1] | dynamic surface activity (surface tension versus bubble life time) [2, 6] | antimicrobial efficacy against E. coli (log reduction of bacteria) [4] | antimicrobial efficacy [1] | dynamic surface activity (surface tension versus bubble life time) [2, 8] | kill properties on Staphylococcus [3] | also measured |
| --- | --- | --- | --- | --- | --- | --- | --- |
| CCCCCCCCCCCCOS(=O)(=O)[O-].[Na+] [SLS, sodium lauryl sulfate] | highest log reduction of bacteria | overall increase in surface activity compared to Bardac 205M alone, but displayed slower dynamics | reduce the antimicrobial activity of the quaternary ammonium compound |  |  |  | dynamic surface tension [2]: reduced dynamic surface tension, as compared to either the quaternary ammonium compound or the anionic surfactant alone; antimicrobial efficacy against Staphylococcus [3, 7]: good antimicrobial efficacy against Staphylococcus; log reduction of bacteria for E. coli [4]: highest log reduction of bacteria for E. coli |
| CCCCC(CC)C(=O)O (centres unmarked) [ethylhexoic acid] | highest log reduction of bacteria |  | highest log reduction of bacteria | good antimicrobial efficacy | capable of increasing the surface activity, to variable extents, compared to Bardac 205M alone | excellent kill properties on Staphylococcus |  |
| sodium lauryl ether sulfate [SLES] | highest log reduction of bacteria | overall increase in surface activity compared to Bardac 205M alone, but displayed slower dynamics | reduce the antimicrobial activity of the quaternary ammonium compound | good antimicrobial efficacy |  |  | dynamic surface activity (surface tension versus bubble life time) ([2]; 100 ppm Bardac […] + surfactant at 9:1 mass ratio, 160° F., FIG. 1): do not display the synergistic boost in surface activity; antimicrobial efficacy against Staphylococcus [3, 7]: good antimicrobial efficacy against Staphylococcus; log reduction of bacteria for E. coli [4]: highest log reduction of bacteria for E. coli |
| CC(C(=O)[O-])N(CC(=O)[O-])CC(=O)[O-].[Na+].[Na+].[Na+] (centres unmarked) [Trilon M, methyl glycine diacetic acid (MGDA)] |  |  |  |  |  |  | dynamic surface activity, effect of pH ([2]; 100 ppm Bardac LF80 + 100 ppm Trilon M at pH 3.0, 9.0, 11.0, FIG. 21): independent of pH |
| CCCCC(CC)COS(=O)(=O)[O-].[Na+] (centres unmarked) [EH-S, Sodium 2-ethyl hexyl sulfate] | highest log reduction of bacteria | rapid increase in surface activity | reduce the antimicrobial activity of the quaternary ammonium compound |  |  | excellent kill properties on Staphylococcus | dynamic surface tension [2]: synergistic reduction of surface tension; antimicrobial efficacy against Staphylococcus [3, 9]: good antimicrobial efficacy against Staphylococcus; log reduction of bacteria for E. coli [4]: highest log reduction of bacteria for E. coli |
| CC(O)(P(=O)(O)O)P(=O)(O)O [HEDP, 1-hydroxy ethylidene-1,1-diphosphonic acid] |  |  |  |  |  |  | dynamic surface activity ([2]; 100 ppm Bardac LF80 + 10-75 ppm HEDP, pH 7.0, FIG. 18): increase in dynamic surface activity of Bardac LF80 in combination with HEDP |
| CCCCCCCCS(=O)(=O)[O-].[Na+] [NAS-FAL, sodium n-octanesulfonate] | highest log reduction of bacteria | rapid increase in surface activity | reduce the antimicrobial activity of the quaternary ammonium compound |  |  |  | dynamic surface tension [2]: synergistic trend in regards to reduced surface tension; antimicrobial efficacy against Staphylococcus [3, 9]: good antimicrobial efficacy against Staphylococcus |
| CCCCCCCC/C=C\CCCCCCCC(=O)O [Oleic acid] |  |  |  |  | capable of increasing the surface activity, to variable extents, compared to Bardac 205M alone |  |  |
| CCCCCCCCCC(=O)O [decanoic acid] | highest log reduction of bacteria |  | reduce the antimicrobial activity of the quaternary ammonium compound | good antimicrobial efficacy |  | excellent kill properties on Staphylococcus | dynamic surface tension, effect of pH ([2]; 100 ppm Bardac […] + 56 ppm decanoic acid mole:mole, pH 3.6-10.2, FIG. 5B): independent of pH; dynamic surface activity (surface tension versus bubble life time) ([2]; 100 ppm Bardac […] alone, 100 ppm Decanoate alone, or 100 ppm Bardac […] + 10-70 ppm Decanoic acid, FIG. 3B): limited surface activity; effect on the antimicrobial efficacy of the quat [5]: “synergizes” the quat; effect on the antimicrobial efficacy of the quat ([5]; listed as decanoate): “deactivates” quat |
| CCCCCCCCCCCC(=O)O [lauric acid] |  |  |  |  | capable of increasing the surface activity, to variable extents, compared to Bardac 205M alone |  |  |
| CCCCCCCC(=O)O [octanoic acid] | highest log reduction of bacteria |  | highest log reduction of bacteria | good antimicrobial efficacy | capable of increasing the surface activity, to variable extents, compared to Bardac 205M alone | excellent kill properties on Staphylococcus |  |
